Where a name gives a salt, the structure may show the parent alone.
Legend:
[1] = molecular target: T1, 6×His-RORalphaLBD protein (Homo sapiens, UniProt P35398); assay: TR-FRET assay measuring RORalphaLBD interaction with the LXXLL peptide SRC1−NR1+2, Example 2; type: biochemical; conditions: for binding of co-activator peptide SRC1−NR1+2 to RORα (increase in fluorescence intensity ratio): FIG. 2, increasing concentrations versus solvent only
T1 construct: made in house; host or cells: Sf9 insect cells (baculovirus, pVL1393)
T1 sequence (P35398 with tags, fused parts or gaps): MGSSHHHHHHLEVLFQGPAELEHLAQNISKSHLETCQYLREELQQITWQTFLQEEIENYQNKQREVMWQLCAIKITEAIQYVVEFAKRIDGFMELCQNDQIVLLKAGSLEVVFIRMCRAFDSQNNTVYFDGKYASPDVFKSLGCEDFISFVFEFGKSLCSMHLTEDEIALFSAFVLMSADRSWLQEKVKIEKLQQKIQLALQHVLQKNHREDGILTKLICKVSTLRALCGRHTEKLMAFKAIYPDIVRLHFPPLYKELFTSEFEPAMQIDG
Source text: In this assay, RORα is detected by a specific antibody bound to FRET donor Europium (Eu). The co-activator (CA) is biotin labeled. The biotin label is detecting by streptavidin, which encompasses the FRET acceptor allophycocyanin (APC) marker. If an agonist is bound to RORα, the NR is activated a CA binds to the NR. Accordingly, APC is brought into proximity of Eu, leading to a detecting FRET signal (left panel).
TR-FRET Assay Measuring RORalphaLBD Interaction with the LXXLL Peptide, SRC1−NR1+2
• 6×His-RORalpha: • source: Protein Production (Lab. Thomas Langer) treated with 3 mM LDS, stock solution at 1.5 mg/ml, storage at −20° C., pipetting at room temperature, corresponding to 47.5 μM (with MW 31.6 kD), Concentration in the assay=20 nM • SRC1−NR1+2: • source: JPT Peptide Technologies, stock solution at 250 μM, storage at −20° C., concentration in the assay=400 nM
• anti-6×His antibody: • source: Perkin Elmer #AD0110, stock solutions are at varying concentration with each batch, storage at −20° C., concentration in the assay=20 nM • strep-APC: • source: Perkin Elmer #AD0201, stock solutions are at varying concentration with each batch, storage at +4° C. after reconstitution, concentration in the assay=200 nM (based on streptavidin)
• Cholesterol sulfate: • source: SIGMA #C9523, stock solution in DMSO (30 mM), storage at −20° C.
• 50 mM Tris, 100 mM NaCl, 1 mM DTT, 0.1% Bovine Serum Albumin (add BSA fresh each day), adjust pH to 7.4
• Test plates: CORNING Costar #3639 (96 well half area)
All proteins, labels and compounds were diluted in the assay buffer just prior to assay setup. This assay was realised in 96 well half area plates. The final test volume was 20 μl. It is divided in 2 pipetting steps:
First, a mix containing 6×His-RORalphaLBD protein, BiotinSRC1−NR1+2 peptide, anti-6×His antibody and strep-APC was prepared on ice in the following concentrations: […]
The plates were incubated for 2 h in subdued light at room temperature and read on a Tecan ULTRA at room temperature with 340 nm excitation and 612 nm as Europium reference and 665 nm as APC FRET signal.

[2] = molecular target: T2, RORαLBD protein (Homo sapiens, UniProt P35398); assay: co-factor recruitment fluorescence resonance energy transfer assay (FRET), Example 1; type: biochemical; conditions: for co-factor recruitment (fluorescence ratios at 665 nm and 612 nm): time resolved measurement, 20 nM RORαLBD, 400 nM biotin-labeled peptide, 2 hrs
T2 construct: made in house; host or cells: Sf9 insect cells (baculovirus, pVL1393)
T2 sequence (P35398 with tags, fused parts or gaps): T1 sequence (P35398 with tags, fused parts or gaps)
Description: 20 nM RORαLBD protein labeled with equimolar amounts of fluorescent anti-6×His antibody were incubated with 400 nM of the respective biotin-labeled peptide and equimolar amounts of a streptavidin-tagged fluorophore in a buffer containing 50 mM Tris, 100 mM NaCl, 1 mM DTT and 0.1% BSA for 2 hrs.

| Structure (SMILES) | EC50 [1] [µM] | binding of co-activator peptide SRC1−NR1+2 to RORα (increase in fluorescence intensity ratio) [1] | EC50 [2] [µM] | co-factor recruitment (fluorescence ratios at 665 nm and 612 nm) [2] |
| --- | --- | --- | --- | --- |
| CC(C)CCC[C@@H](C)[C@H]1CC[C@H]2[C@@H]3CC=C4C[C@@H](OS(=O)(=O)O)CC[C@]4(C)[C@H]3CC[C@]12C [Cholesterol sulfate] | ~10 | dose-dependently induce binding | 22 | dose-dependent co-factor recruitment |
| CC(C)CCC[C@@H](C)[C@H]1CC[C@H]2[C@@H]3CC=C4C[C@@H](O)CC[C@]4(C)[C@H]3CC[C@]12C [Cholesterol] | – | dose-dependently induce binding | – | dose-dependent co-factor recruitment |

— US20120282710A1, “LIGAND BINDING DOMAINS OF NUCLEAR RECEPTORS IN CONTROLLABLE FORM AND METHODS INVOLVING THE SAME” (SANOFI, priority 2007, published 2012)
